Data: patent publication US8008487B2, “Substituted thieno[2,3-D]pyrimidines as fungicides” (priority 2004, dated 2011)

Legend:
Format in all cases: in vivo
Colletotricum lagenarium = test: Cucumber Anthracnose (COLLLA), whole-plant fungicide test; conditions: one-day protectant test; for pest or weed control at 200 ppm / pest or weed control at 100 ppm: Cucumis sativus, 24 h, read-out: COLLLA percent control of disease; for pest or weed control at 200 ppm: foliar; for pest or weed control at 100 ppm: 100 ppm (footnote a)
Erysiphe cichoracaerum = test: Cucumber Powdery Mildew (ERYSCI), whole-plant fungicide test; conditions: Erysiphe, foliar, 24 h, 200 ppm on foliage, one-day protectant test, read-out: ERYSCI percent control of disease
[1] = tested on: Erysiphe graminis f. sp. tritici; test: Powdery Mildew of Wheat (ERYSGT), whole-plant fungicide test; conditions: Blumeria graminis, 24 h, one-day protectant test, read-out: ERYSGT percent control of disease; for pest or weed control at 200 ppm: foliar, 200 ppm on foliage; for pest or weed control at 100 ppm: 100 ppm (footnote a)
Leptosphaeria nodorum = test: Glume Blotch of Wheat (LEPTNO), whole-plant fungicide test; conditions: 200 ppm on foliage, one-day protectant test; for pest or weed control at 200 ppm: Parastagonospora nodorum, foliar, 24 h, read-out: LEPTNO percent control of disease
Phytophthora infestans = test: whole plant or invertebrate; conditions: for pest or weed control at 200 ppm / pest or weed control at 100 ppm: Phytophthora infestans, in Solanum lycopersicum, 24 h; for pest or weed control at 200 ppm: foliar, read-out: PHYTIN percent control of disease, 200 ppm on foliage, tomato, one-day protectant test; for pest or weed control at 100 ppm: read-out: PHYTIN percent control of disease, 100 ppm (footnote a), tomato, one-day protectant test
[2] = tested on: Puccinia recondita tritici; test: Leaf Rust of Wheat (PUCCRT), whole-plant fungicide test; conditions: one-day protectant test; for pest or weed control at 200 ppm / pest or weed control at 100 ppm: Puccinia recondita, 24 h, read-out: PUCCRT percent control of disease; for pest or weed control at 200 ppm: foliar; for pest or weed control at 100 ppm: 100 ppm (footnote a)
Magnaporthe grisea = test: whole plant or invertebrate; conditions: for pest or weed control at 200 ppm: Pyricularia oryzae, in Oryza sativa, foliar, 24 h, read-out: PYRIOR percent control of disease, 200 ppm on foliage, rice, one-day protectant test
Septoria tritici = test: Speckled Leaf Blotch of Wheat (SEPTTR), whole-plant fungicide test; conditions: Zymoseptoria tritici, foliar, 24 h, 200 ppm on foliage, one-day protectant test, read-out: SEPTTR percent control of disease
Cochliobolus sativus = test: Spot Blotch of Wheat (COCHSA), whole-plant fungicide test; conditions: Bipolaris sorokiniana, foliar, 24 h, 200 ppm on foliage, one-day protectant test, read-out: COCHSA percent control of disease
Method: The activity of the compounds as effective fungicides was determined by applying the compounds to plants and observing control of fungal disease. The compounds were formulated at 200 ppm in 10 vol. percent acetone plus 90 vol. percent Triton X water (deionized water 99.99 wt. percent+0.01 wt. percent Triton X100), giving a “formulated test compound.” In a few cases, compounds were formulated at 100, 75 or 8.3 ppm rather than 200 ppm in 10 vol. percent acetone plus 90 vol. percent Triton X water (deionized water 99.99 wt. percent+0.01 wt. percent Triton X100), giving a ‘formulated test compound’. The compounds were tested for ability to control plant diseases in a 1-day protectant test (1DP) or a 2-day curative test (2DC). Formulated test compounds were applied to plants using a turn table sprayer fitted with two opposing air atomization nozzles which delivered approximately 1500 L/ha of spray volume. Plants were inoculated with spores of the fungus the next day (1DP), then incubated in an environment conducive to disease development. In a few cases, the compounds were tested for ability to control plant disease in a two-day curative test. Plants were inoculated with spores of the fungus two days prior to compound application, and incubated in an environment conducive to disease development both before and after compound application (2DC). For all types of tests, disease severity was evaluated 4 to 28 days later, depending on the speed of disease development.
Each pot contained 3-8 seedlings. These plants were sprayed until wet with the formulated test compound. On the following day, the leaves were inoculated with an aqueous spore suspension of Cochliobolus sativus and the plants were kept in high humidity for one to two days to permit spores to germinate and infect the leaf. The plants were then transferred to a greenhouse until disease developed on untreated control plants.
The following table presents the activity of typical compounds of the present invention when evaluated in these experiments. The effectiveness of the test compounds in controlling disease was determined by assessing the severity of disease on treated plants, then converting the severity to percent control based on the level of disease on untreated, inoculated plants.
TABLE 4: Activity of compounds as fungicides. Data are the level at which the given disease was controlled when the given compound was applied to the foliage of the plant at 200 ppm. In a few cases (noted in the table) the compound was applied to the plant at 100, 75 or 8.3 ppm. The plant was inoculated with the fungus one day after treatment. In a few cases (noted in the table) the plant was inoculated with the fungus two days before treatment.

Compound | pest or weed control at 200 ppm (Colletotricum lagenarium; 200 ppm on foliage) [%] | pest or weed control at 200 ppm (Erysiphe cichoracaerum) [%] | pest or weed control at 200 ppm [1] [%] | pest or weed control at 200 ppm (Leptosphaeria nodorum) [%] | pest or weed control at 200 ppm (Phytophthora infestans) [%] | pest or weed control at 200 ppm ([2]; 200 ppm on foliage) [%] | pest or weed control at 200 ppm (Magnaporthe grisea) [%] | pest or weed control at 200 ppm (Septoria tritici) [%] | pest or weed control at 200 ppm (Cochliobolus sativus) [%] | COLLLA percent control of disease (Colletotricum lagenarium; 200 ppm on foliage) | LEPTNO percent control of disease (Leptosphaeria nodorum) | PHYTIN percent control of disease (Phytophthora infestans; 200 ppm on foliage, tomato, one-day protectant test) | PUCCRT percent control of disease ([2]; 200 ppm on foliage) | PYRIOR percent control of disease (Magnaporthe grisea; 200 ppm on foliage, rice, one-day protectant test) | pest or weed control at 100 ppm (Colletotricum lagenarium) [%] | pest or weed control at 100 ppm [1] [%] | pest or weed control at 100 ppm (Phytophthora infestans) [%] | pest or weed control at 100 ppm [2] [%]
Clc1csc2ncnc(NC3CCCc4ccccc43)c12 (stereo not shown) [Compound 10] | 0 to 49 | 0 to 49 | 0 to 49 | 0 to 49 | 0 to 49 | 0 to 49 | 50 to 79 | 0 to 49 | – | – | – | – | – | – | – | – | – | –
FC(F)(F)Oc1ccc(COc2ccc(CCNc3ncnc4scc(Cl)c34)cc2)cc1 [Compound 6] | – | 80 to 100 | 0 to 49 | 50 to 79 | – | 80 to 100 | 50 to 79 | 50 to 79 | – | – | – | – | – | – | – | – | – | –
CC(=O)Nc1ccc(C(C)Nc2ncnc3scc(Cl)c23)cc1 (stereo not shown) [Compound 59] | 0 to 49 | 50 to 79 | – | 0 to 49 | 0 to 49 | 80 to 100 | 80 to 100 | 50 to 79 | 0 to 49 | – | – | – | – | – | – | – | – | –
CC(C)c1ccc(C(C)Nc2ncnc3scc(Cl)c23)cc1 (stereo not shown) [Compound 1, (5-Chlorothieno[2,3-d]pyrimidin-4-yl)-[1-(4-isopropylphenyl)ethyl]amine] | – | – | 80 to 100 | – | – | – | – | – | 0 to 49 | * (* is 0-49 percent control of disease) | *** (*** is 80-100 percent control of disease) | ** (** is 50-79 percent control of disease) | *** (*** is 80-100 percent control of disease) | *** (*** is 80-100 percent control of disease) | – | – | – | –
CC(Nc1ncnc2scc(Br)c12)c1ccc(F)nc1 (stereo not shown) [Compound 60] | 80 to 100 | 80 to 100 | – | 0 to 49 | 0 to 49 | 80 to 100 | 80 to 100 | 0 to 49 | 0 to 49 | – | – | – | – | – | – | – | – | –
CC(Nc1ncnc2scc(Cl)c12)c1ccc(Cl)nc1 (stereo not shown) [Compound 28] | – | – | 0 to 49 | 80 to 100 | – | 80 to 100 | 80 to 100 | 80 to 100 | 0 to 49 | – | – | – | – | – | – | – | – | –
COc1ccc(C(C)Nc2ncnc3scc(F)c23)cc1 (stereo not shown) [Compound 76, (5-Fluorothieno[2,3-d]pyrimidin-4-yl)-[1-(4-methoxyphenyl)ethyl]amine] | – | – | – | – | – | – | – | – | – | – | – | – | – | – | 50 to 79 | 0 to 49 | 80 to 100 | 80 to 100
COc1ccc(C(C)Nc2ncnc3scc(Cl)c23)cc1F (stereo not shown) [Compound 66] | 0 to 49 | 80 to 100 | – | 0 to 49 | 50 to 79 | 80 to 100 | 80 to 100 | – | – | – | – | – | – | – | – | 80 to 100 | – | –
CC(Nc1ncnc2scc(Cl)c12)c1ccc(NC=O)cc1 (stereo not shown) [Compound 58] | 50 to 79 | 0 to 49 | – | 0 to 49 | 0 to 49 | 80 to 100 | 80 to 100 | 50 to 79 | 0 to 49 | – | – | – | – | – | – | – | – | –
CC(COc1cccc(Cl)n1)Nc1ncnc2scc(Cl)c12 (stereo not shown) [Compound 57] | 0 to 49 | 50 to 79 | – | 0 to 49 | 0 to 49 | 80 to 100 | 80 to 100 | 80 to 100 | 0 to 49 | – | – | – | – | – | – | – | – | –
COCC(Nc1ncnc2scc(Cl)c12)c1ccccc1 (stereo not shown) [Compound 62] | 0 to 49 | 80 to 100 | – | 0 to 49 | 0 to 49 | 80 to 100 | 80 to 100 | 50 to 79 | 0 to 49 | – | – | – | – | – | – | – | – | –
Clc1csc2ncnc(NC3CCc4ccccc43)c12 (stereo not shown) [Compound 8] | 0 to 49 | 0 to 49 | 0 to 49 | 0 to 49 | 0 to 49 | 50 to 79 | 50 to 79 | 0 to 49 | – | – | – | – | – | – | – | – | – | –
Clc1csc2ncnc(NCCc3ccc(OCc4ccccc4)cc3)c12 [Compound 3] | 0 to 49 | – | 80 to 100 | 80 to 100 | 80 to 100 | 80 to 100 | 80 to 100 | 80 to 100 | 0 to 49 | – | – | – | – | – | – | – | – | –
COc1ccc(C(C)Nc2ncnc3scc(Cl)c23)cc1C (stereo not shown) [Compound 63] | 0 to 49 | 80 to 100 | – | 50 to 79 | 50 to 79 | 80 to 100 | 80 to 100 | – | – | – | – | – | – | – | – | 80 to 100 | – | –
CC(Nc1ncnc2scc(F)c12)c1ccc(OCC(F)(F)F)cc1 (stereo not shown) [Compound 78] | – | – | – | – | – | – | – | – | – | – | – | – | – | – | 80 to 100 | 80 to 100 | 80 to 100 | 80 to 100
Clc1ccc(CCNc2ncnc3scc(Cl)c23)cn1 [Compound 65] | 0 to 49 | 80 to 100 | – | 0 to 49 | 80 to 100 | 80 to 100 | 0 to 49 | – | – | – | – | – | – | – | – | 0 to 49 | – | –
CC(Nc1ncnc2scc(Cl)c12)c1ccc(OCc2ccccc2)cc1 (stereo not shown) [Compound 2] | 0 to 49 | – | 80 to 100 | 80 to 100 | 80 to 100 | 80 to 100 | 80 to 100 | 80 to 100 | 0 to 49 | – | – | – | – | – | – | – | – | –
COc1ccc(C(C)Nc2ncnc3scc(F)c23)cn1 (stereo not shown) [Compound 77] | – | – | – | – | – | – | – | – | – | – | – | – | – | – | 50 to 79 | 0 to 49 | 80 to 100 | 80 to 100
CC(Nc1ncnc2scc(Cl)c12)c1ccc2c(c1)OCO2 (stereo not shown) [Compound 61] | 0 to 49 | 80 to 100 | – | 80 to 100 | 0 to 49 | 80 to 100 | 50 to 79 | 50 to 79 | 50 to 79 | – | – | – | – | – | – | – | – | –
CC(Nc1ncnc2scc(Cl)c12)c1ccc(OCc2ccc(OC(F)(F)F)cc2)cc1 (stereo not shown) [Compound 5] | 0 to 49 | 80 to 100 | 50 to 79 | 50 to 79 | – | 80 to 100 | 50 to 79 | 80 to 100 | – | – | – | – | – | – | – | – | – | –
